Data as given in patent US20210186954A1, “DRUG PRODUCTS FOR NASAL ADMINISTRATION AND USES THEREOF” (Summit Biosciences Inc., priority 2018, published 2021).
Where two headings read alike, the source gives them in different places.

Experiments:
[1] = Dissolution of chlorobutanol in water during preparation of F1(d); type: physicochemical
Experimental: Chlorobutanol dissolves into water very slowly at ambient temperatures. Therefore during the preparation of F1(d), USP-PW was heated. After 18 minutes, the solution was clear and all of the chlorobutanol was completely dissolved.

heroin overdose = details: IM naloxone; cited from earlier work
[2] = system: suspected opiate overdose; details: cited from earlier work
[3] = system: patients with suspected opioid overdose; details: cited from earlier work
[4] = system: patients with suspected narcotic overdose; details: cited from earlier work
[5] = 2 mg nasal solution dose; predicted by Wermeling; cited from earlier work
opiate addicts = details: nasal vs intravenous route; cited from earlier work
[6] = system: suspected opiate overdose; details: 2 mg IN, cited from earlier work
overdose events = details: 399 overdose events where naloxone was used; cited from earlier work

SMILES | Dissolution into water ([1]; ambient temperatures) | Time until solution clear and chlorobutanol completely dissolved ([1]; heated USP-PW, preparation of F1(d)) [min] | patients given supplementary naloxone (heroin overdose) [%] | more than 10 spontaneous respirations per minute within 8 minutes ([2]; 2 mg IM) [%] | more than 10 spontaneous respirations per minute within 8 minutes ([2]; 2 mg IN, mucosal atomizer) [%] | needing rescue naloxone ([2]; IM group) [%] | needing rescue naloxone ([2]; IN group) [%] | mean interval from EMS arrival to respiratory rate ≥10 breaths/min ([3]; naloxone 0.4 mg IV) [min] | mean interval from EMS arrival to respiratory rate ≥10 breaths/min ([3]; naloxone 0.8 mg SQ) [min] | clinical response ([4]; IN group) [%] | clinical response ([4]; IV group) [%] | Cmax [5] [ng/mL] | tmax [5] | effectiveness of nasal administration (opiate addicts) | responders responding to IN naloxone alone ([6]; 43 of 52 responders) [%] | median time from administration of IN naloxone to awakening [6] [min] | overdose events reported reversed (overdose events) [%]
CC(C)(O)C(Cl)(Cl)Cl [Chlorobutanol, 1,1,1-trichloro-2-methylpropan-2-ol] | very slowly | 18 |  |  |  |  |  |  |  |  |  |  |  |  |  |  | 
C=CCN1CC[C@]23c4c5ccc(O)c4O[C@H]2C(=O)CC[C@@]3(O)[C@H]1C5 [naloxone, 17-allyl-4,5a-epoxy-3,14-dihydroxymorphinan-6-one] |  |  | 4.5 | 82 | 63 | 13 | 26 | 9.3 ± 4.2 | 9.6 ± 4.58 | 66 | 56 | 3 to 5 | approximately 20 minutes | as effective as the intravenous route | 83 | 3.0 | 89
